pIC50: −log10 of the molar value. Activity calls are given as the source filed them. How the calls were made is not given here. Bounds are passed on as bounds.

A word on the IC50: it is the concentration needed to halve the response being measured. One may read the pIC50 as −log10 of the IC50, conventionally taken in molar units.

This assay relates to MCF-7/NOD2 cells, MDP-induced IL-8 secretion. Kind of assay: NOD2 pathway IL-8 secretion inhibitors – MCF-7/NOD2 cells, MDP stimulus, set 2, SAR follow-up (AID 2503).
Take `COc1ccc(C(=O)Cn2c(N)nc3ccccc32)cc1`: the IC50 was > 25 µM (inactive). Regarding `Cc1ccc(S(=O)(=O)n2c(=S)[nH]c3cc(C)ccc32)cc1`, the IC50 was > 25 µM (inactive). On the same count and under the same terms, in the case of `CCCn1c(SCC(=O)Nc2nc3c(s2)CCCC3)nc2c1c(=O)n(C)c(=O)n2C` it was > 25 µM (inactive); in that of `CC(C)Sc1nc2c(c(=O)[nH]c(=O)n2C)n1Cc1ccccc1`, > 25 µM (inactive); in that of `C/C=C/Cn1c(SCc2ccc(Cl)cc2)nc2c1c(=O)[nH]c(=O)n2C`, > 25 µM (inactive).

For `Nc1nc2ccccc2n1Cc1ccc(Cl)cc1`, the pIC50 was 5.34. On to `CCCCn1c(SCC(=O)c2ccccc2)nc2c1c(=O)[nH]c(=O)n2C`, for which the IC50 is > 25 µM (inactive). Take `Cn1c(=O)[nH]c(=O)c2c1nc([N+](=O)[O-])n2Cc1ccccc1`: the pIC50 is 5.88. In the case of `CC(C)n1c(SCCCc2ccccc2)nc2c1c(=O)[nH]c(=O)n2C`, the IC50 was > 25 µM (inactive).

`CCCCCn1c(SCCc2ccccc2)nc2c1c(=O)[nH]c(=O)n2C`: the IC50 is > 25 µM (inactive). Still for that read-out and setting: in the case of `C/C(Cl)=C\Cn1c(NCCc2ccccc2)nc2c1c(=O)n(C)c(=O)n2C` it was > 25 µM (inactive); in that of `C/C=C/Cn1c(SCc2ccccc2)nc2c1c(=O)[nH]c(=O)n2C`, > 25 µM (inactive); in that of `Nc1nc2ccccc2n1CCOc1ccc(Cl)cc1`, > 25 µM (inactive). Still for that read-out and setting: in the case of `C/C=C/Cn1c(SCCCc2ccccc2)nc2c1c(=O)[nH]c(=O)n2C` it was > 25 µM (inactive). Regarding `CCC(=O)Nc1nc2ccccc2n1Cc1ccc(Cl)cc1`, the pIC50 is 4.88. As for `C=CCn1c(SCCCc2ccccc2)nc2c1c(=O)[nH]c(=O)n2C`, the IC50 was > 25 µM (inactive). Turning to `Cc1ccc(S(=O)(=O)n2c(N)nc3ccccc32)cc1`, the pIC50 was 4.76.

For `CCCCn1c(SCC(=O)Nc2nnc(CC)s2)nc2c1c(=O)n(C)c(=O)n2C`, the IC50 was > 25 µM (inactive).

In the case of `COCCn1c(SCCCc2ccccc2)nc2c1c(=O)[nH]c(=O)n2C`, the IC50 was > 25 µM (inactive). The same measure, in the same setting: in the case of `CCCn1c(SCCc2ccccc2)nc2c1c(=O)[nH]c(=O)n2C` it was > 25 µM (inactive); in that of `Oc1ccc(N=Nc2ccccc2C(F)(F)F)c2cccnc12`, > 25 µM (inactive).

As to `CCCCn1c(CN2CCN(c3cccc(Cl)c3)CC2)nc2c1c(=O)n(C)c(=O)n2C`, the IC50 is > 25 µM (inactive). Same read-out and setting: in the case of `O=C(Nc1nc2ccccc2n1Cc1ccc(Cl)cc1)c1ccco1` it was > 25 µM (inactive).

These data come from PubChem BioAssay AID2503 (Sanford-Burnham Center for Chemical Genomics, 2010).
